“And” between values parts separate entries of the source, which are not always exact repeats. Identical values can stand only once. Like-named read-outs stand apart in the source and are kept apart here. Values belong to the compound of their own block, whether it stands above or below them.
Legend:
human A2AAR [1] = biological target: T1, human A2AAR (Homo sapiens, UniProt P29274); conditions: 95% confidence interval in brackets, cited from earlier work
T1 construct: expressed in transfected cells; host or cells: CHO cells
T1 sequence (P29274 whole entry): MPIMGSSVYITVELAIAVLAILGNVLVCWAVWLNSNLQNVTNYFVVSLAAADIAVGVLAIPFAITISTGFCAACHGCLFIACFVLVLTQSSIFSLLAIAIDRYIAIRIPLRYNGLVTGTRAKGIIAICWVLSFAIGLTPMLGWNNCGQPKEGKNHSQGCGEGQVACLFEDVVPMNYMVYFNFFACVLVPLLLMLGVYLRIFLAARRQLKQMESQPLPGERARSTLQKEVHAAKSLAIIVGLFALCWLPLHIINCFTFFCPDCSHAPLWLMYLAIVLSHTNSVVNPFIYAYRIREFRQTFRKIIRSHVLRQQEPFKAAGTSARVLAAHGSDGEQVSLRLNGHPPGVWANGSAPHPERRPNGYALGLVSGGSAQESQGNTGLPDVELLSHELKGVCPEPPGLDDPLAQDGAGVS

human A2AAR [2] = biological target: T1, human A2AAR; test: Radioligand binding assay at the A2AAR for adenine derivatives 1-23 (displacement of [3H]NECA, CHO cells)
Description: (§1) Radioligand binding assays for compounds 25–36 were performed as previously described[61] using membrane preparations from Chinese hamster ovary (CHO) or human embryonic kidney (HEK)293 cells stably expressing the human A1, A2A or A3AR. The following radioligands: antagonist [^3H]DPCPX (0.5 nM); antagonist [^3H]ZM241385 (1.0 nM); and agonist [^125I]AB-MECA (0.2 nM) were used for A1, A2A, and A3ARs, respectively. Binding parameters were calculated using Prism 6 software (GraphPAD, San Diego, CA, USA). IC50 values obtained from competition curves were converted to Ki values using the Cheng-Prusoff equation. Data were expressed as mean ± standard error. The radioligand binding assays for compounds 18, 20, 21, and 23 were performed as previously described. Each Ki value was determined from at least three independent experiments.
Supplementary Table S1. Binding data for compounds 1-23. […]
aKi value from Lambertucci et al.1 bKi value from Volpini et al.2 cDisplacement of specific [3H]NECA binding at human A2AAR expressed in CHO cells measured in this work.
Data is expressed as geometric means with 95% confidence limits (n=3-6). […]

human A2AAR [3] = biological target: T1, human A2AAR; test: Functional assay: inhibition of NECA-induced cAMP production (GloSensor) in CHO cells; type: cell-based; conditions: against 1 µM NECA, CHO cells expressing human A2AAR
human A3AR = biological target: T2, human A3AR (Homo sapiens, UniProt P0DMS8); test: Radioligand binding assay, agonist [125I]AB-MECA (0.2 nM), membranes of CHO or HEK293 cells; conditions: for inhibition at 300 µM: read-out: % inhibition at 300 µM A3, 300 µM, mean ± standard error, n=3; for Ki: mean ± standard error, n=3, read-out: Ki A3
T2 construct: expressed in transfected cells; host or cells: CHO or HEK293 cells (membrane preparations)
T2 sequence (P0DMS8 1-318): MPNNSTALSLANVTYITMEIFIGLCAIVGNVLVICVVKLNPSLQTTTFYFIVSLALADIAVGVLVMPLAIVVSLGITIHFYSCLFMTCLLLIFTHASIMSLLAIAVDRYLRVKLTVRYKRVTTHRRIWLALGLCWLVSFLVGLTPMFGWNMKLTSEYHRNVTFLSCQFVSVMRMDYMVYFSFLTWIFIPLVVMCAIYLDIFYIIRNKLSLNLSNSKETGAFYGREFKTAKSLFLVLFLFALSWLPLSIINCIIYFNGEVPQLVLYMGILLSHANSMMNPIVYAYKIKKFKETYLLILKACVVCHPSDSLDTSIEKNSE
Description: as §1
(§2) Supplementary Table S2. Experimental data for compounds 25-36. Radioligand binding
(§3) assays were performed using membranes of mammalian cells overexpressing one AR subtype.
(§4) aData are expressed as mean ± standard error resulting from three independent experiments.

human A2AAR [4] = biological target: T1, human A2AAR; test: Radioligand binding assay, antagonist [3H]ZM241385 (1.0 nM), membranes of CHO or HEK293 cells, compounds 25-36; conditions: for inhibition at 300 µM: read-out: % inhibition at 300 µM A2A (displacement of radioligand binding); for inhibition at 300 µM / Ki: [3H]ZM241385, mean ± standard error, n=3; for Ki: read-out: Ki A2A; for fold increase of affinity compared to compound 32: experimentally determined, A2AAR
Description: as §1, §2, §3, §4

human A1AR = biological target: T3, human A1AR (Homo sapiens, UniProt P30542); test: Radioligand binding assay, antagonist [3H]DPCPX (0.5 nM), membranes of CHO or HEK293 cells; conditions: for inhibition at 300 µM: read-out: % inhibition at 300 µM A1
T3 construct: expressed in transfected cells; host or cells: CHO or HEK293 cells (membrane preparations)
T3 sequence (P30542 1-326): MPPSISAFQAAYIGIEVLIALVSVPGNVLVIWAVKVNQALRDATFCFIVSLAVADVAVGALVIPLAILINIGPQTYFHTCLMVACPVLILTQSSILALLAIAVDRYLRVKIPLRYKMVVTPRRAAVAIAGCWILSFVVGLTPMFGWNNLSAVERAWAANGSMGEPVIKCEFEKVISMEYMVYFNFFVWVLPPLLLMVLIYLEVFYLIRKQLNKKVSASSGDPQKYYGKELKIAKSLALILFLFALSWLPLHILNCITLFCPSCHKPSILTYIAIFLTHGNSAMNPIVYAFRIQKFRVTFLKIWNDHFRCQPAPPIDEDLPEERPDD
Description: Binding parameters were calculated using Prism 6 software (GraphPAD, San Diego, CA, USA). IC50 values obtained from competition curves were converted to Ki values using the Cheng-Prusoff equation. Data were expressed as mean ± standard error. […] Each Ki value was determined from at least three independent experiments.
Supplementary Table S2. […] Radioligand binding
as §3

[5] = displacement of specific [3H]NECA binding at human A2AAR expressed in CHO cells, measured in this work
[6] = [3H]DPCPX, mean ± standard error, n=3
[7] = [3H]DPCPX, mean ± standard error, n=3, read-out: Ki A1

Structure (SMILES): Cn1cnc2ncnc(N)c21 [Compound 1]
Ki (human A2AAR [1]; ref Lambertucci et al. [22]): > 100 µM

experimental improvement in binding free energy, compound 3 versus compound 2 (human A2AAR [2]; C8-bromine addition): 2.4 kcal/mol
fold increase in affinity compared to compound 2 (human A2AAR [2]; C8-bromine versus unsubstituted compound 2): 58 fold
experimental improvement of binding affinity, compound 3 versus compound 4 (human A2AAR [2]; addition of N9-methyl group): 2.0 kcal/mol
Structure (SMILES): Cn1c(Br)nc2c(N)ncnc21 [Compound 3]

Structure (SMILES): CCn1c(Br)nc2c(N)ncnc21 [Compound 5]
inhibition of A2AAR mediated cAMP production (human A2AAR [3]): close to completely inhibit the agonist effect of 1 µM NECA
Ki (human A2AAR [1]; ref Lambertucci et al. [22]): 0.052 µM

Structure (SMILES): Nc1ncnc2c1nc(Br)n2CCO [Compound 6]
Ki (human A2AAR [1]; ref Lambertucci et al. [22]): 0.62 µM

Structure (SMILES): CCCn1c(Br)nc2c(N)ncnc21 [Compound 7]
Ki (human A2AAR [1]; ref Lambertucci et al. [22]): 0.3 µM

Structure (SMILES): CC(C)Cn1c(Br)nc2c(N)ncnc21 [Compound 8]
Ki (human A2AAR [1]; ref Lambertucci et al. [22]): 6 µM

Structure (SMILES): CCn1cnc2c(N)ncnc21 [Compound 9]
Ki (human A2AAR [1]; ref Lambertucci et al. [22]): 2.2 µM

Structure (SMILES): Nc1ncnc2c1ncn2CCO [Compound 10]
Ki (human A2AAR [1]; ref Lambertucci et al. [22]): 11 µM

Structure (SMILES): CC(C)Cn1cnc2c(N)ncnc21 [Compound 11]
Ki (human A2AAR [1]; ref Lambertucci et al. [22]): > 100 µM

Structure (SMILES): Nc1ncnc2c1ncn2CCCO [Compound 12]
Ki (human A2AAR [1]; ref Lambertucci et al. [22]): 3.9 µM

Structure (SMILES): CCCn1cnc2c(N)ncnc21 [Compound 13]
Ki (human A2AAR [1]; ref Lambertucci et al. [22]): 9.6 µM

Structure (SMILES): Nc1ncnc2c1nc(Br)n2C1CCCC1 [Compound 14]
Ki (human A2AAR [1]; ref Lambertucci et al. [22]): 1.9 µM

Structure (SMILES): Nc1ncnc2c1ncn2C1CCCC1 [Compound 15]
Ki (human A2AAR [1]; ref Lambertucci et al. [22]): 1.8 µM

Structure (SMILES): C=CCCn1cnc2c(N)ncnc21 [Compound 17]
Ki (human A2AAR [1]; ref Lambertucci et al. [22]): 8.5 µM

Structure (SMILES): CCn1c(C)nc2c(N)ncnc21 [Compound 18]
fold increase of binding affinity compared to compound 9 (human A2AAR [2]; C8-methyl substituent): 10 fold
Ki (human A2AAR [2]; [5]): 0.218 ± 0.061 µM

Structure (SMILES): CCn1c(O)nc2c(N)ncnc21 [Compound 20]
Ki (human A2AAR [2]; [5]): 1.14 ± 0.29 µM

Structure (SMILES): CCOc1nc2c(N)ncnc2n1CC [Compound 22]
inhibition of A2AAR mediated cAMP production (human A2AAR [3]): close to completely inhibit the agonist effect of 1 µM NECA
Ki (human A2AAR [1]; ref Volpini et al. [23]): 0.046 µM

Structure (SMILES): CCn1c(OC(C)C)nc2c(N)ncnc21 [Compound 23]
inhibition of A2AAR mediated cAMP production (human A2AAR [3]): close to completely inhibit the agonist effect of 1 µM NECA
Ki (human A2AAR [1]; ref Volpini et al. [23]): > 100 µM
Ki (human A2AAR [2]; compound retested in a radioligand binding assay at the A2AAR, this work): 0.095 µM
fold loss of binding affinity relative to compound 21 (human A2AAR [2]; from published affinity of 23): > 1000 fold

inhibition at 300 µM (human A3AR): 39 ± 2%
inhibition at 300 µM (human A2AAR [4]): 34%
inhibition at 300 µM (human A1AR; [6]): 27 ± 4%
Structure (SMILES): Nc1ncnc2ncnn12 [Compound 25, [1,2,4]triazolo[1,5-a][1,3,5]triazin-7-amine]

inhibition at 300 µM (human A3AR): 50 ± 4%
Ki (human A2AAR [4]): 78.5 µM
inhibition at 300 µM (human A1AR; [6]): 44 ± 4%
Structure (SMILES): Cc1nc2ncnc(N)n2n1 [Compound 26]

Ki (human A3AR): 119 ± 42 µM
Ki (human A2AAR [4]): 20 µM
Ki (human A1AR): 97.3 ± 3.5 µM
Structure (SMILES): CSc1nc2ncnc(N)n2n1 [Compound 27]

Ki (human A3AR): 153 ± 31 µM
inhibition at 300 µM (human A2AAR [4]): 17%
inhibition at 300 µM (human A1AR; [6]): 22 ± 6%
Structure (SMILES): Nc1cccn2ncnc12 [Compound 28, [1,2,4]triazolo[1,5-a]pyridin-8-amine]

inhibition at 300 µM (human A3AR): 44 ± 4%
inhibition at 300 µM (human A2AAR [4]): 31%
inhibition at 300 µM (human A1AR; [6]): 38 ± 6%
Structure (SMILES): Cc1nc2c(N)cccn2n1 [Compound 29]

Ki (human A3AR): 110 ± 17 µM
inhibition at 300 µM (human A2AAR [4]): 49%
Ki (human A1AR): 97.2 ± 22.5 µM
Structure (SMILES): CCc1nc2c(N)cccn2n1 [Compound 30]

Ki (human A3AR): 102 ± 32 µM
Ki (human A2AAR [4]): 223 µM
Ki (human A1AR): 50.1 ± 22.6 µM
Structure (SMILES): CC(C)c1nc2c(N)cccn2n1 [Compound 31]

Ki (human A3AR): 0.81 ± 0.17 µM
Ki (human A2AAR [4]): 79.1 µM and 79 µM
Ki (human A1AR; [7]): 11.2 ± 2.4 µM
Structure (SMILES): CC(=O)Nc1nc2ccccc2s1 [Compound 32, N-(benzo[d]thiazol-2-yl)acetamide]

Ki (human A3AR): 2.3 ± 0.5 µM
Ki (human A2AAR [4]): 10.7 ± 2.3 µM
fold increase of affinity compared to compound 32 (human A2AAR [4]): 7 fold
Ki (human A1AR; [7]): 17 ± 1.2 µM
Structure (SMILES): CC(=O)Nc1nc2c(C)cccc2s1 [Compound 33]

Ki (human A3AR): 1.1 ± 0.2 µM
Ki (human A2AAR [4]): 11.6 ± 1.2 µM
fold increase of affinity compared to compound 32 (human A2AAR [4]): 7 fold
Ki (human A1AR; [7]): 8.4 ± 0.9 µM
Structure (SMILES): CC(=O)Nc1nc2cc(C)ccc2s1 [Compound 34]

Ki (human A3AR): 2.9 ± 0.4 µM
Ki (human A2AAR [4]): 48.6 ± 2.6 µM
fold increase of affinity compared to compound 32 (human A2AAR [4]): two-fold increase of affinity
Ki (human A1AR; [7]): 17.8 ± 1.7 µM
Structure (SMILES): CC(=O)Nc1nc2ccc(C)cc2s1 [Compound 35]

Ki (human A3AR): 1 ± 0.2 µM
Ki (human A2AAR [4]): 1.8 ± 0.05 µM
experimental increase of affinity compared to compound 32, as free energy (human A2AAR [4]; corresponding to the 44-fold increase): 2.3 kcal/mol
fold increase of affinity compared to compound 32 (human A2AAR [4]): 44 fold
Ki (human A1AR; [7]): 7.8 ± 0.5 µM
Structure (SMILES): COc1cccc2sc(NC(C)=O)nc12 [Compound 36]
